Several values for one entry are separate records, joined by “and”; a condition that tells them apart may be missing. Identical values can stand only once. Like-named read-outs stand apart in the source and are kept apart here.
Key:
[1] = Excerpt: Exemplary, non-limiting GS inhibitors of the present invention and their relevant properties are summarized below: [drawing 1]
M. tuberculosis Erdman = assay: M. tuberculosis growth in broth culture; type: cell-based; details: for inhibition of M. tuberculosis growth in broth culture in comparison with MSO / inhibition of M. tuberculosis in broth culture relative to MSO at each of the three concentrations: 10, 100, 1000 μM; for inhibition of M. tuberculosis growth in broth culture in comparison with MSO: 6 weeks (FIG. 4); for inhibition of M. tuberculosis in broth culture relative to MSO at each of the three concentrations / inhibition of M. tuberculosis growth in broth culture: Example 7; for inhibition of M. tuberculosis growth in broth culture: 10, 100 or 1000 μM, 6 weeks
[2] = system: M. tuberculosis Erdman in human macrophages (THP-1 cells); details: 20, 200, 2000 μM, CFU to day 5 (FIG. 5)
[3] = cited from earlier work; for metabolism: do not form the toxic products formed in vivo from MSO
[4] = α-Et-MSO: convulsions in a minority of mice vs MSO dose giving 100% of mice; cited from earlier work
[5] = in vivo; cited from earlier work
[6] = doses that fully inhibit glutathione synthesis; cited from earlier work
[7] = system: M. tuberculosis Erdman strain; type: in vivo; details: for reduction of CFU in lung and spleen below the level obtained with MSO: from day 14
Remark: listed apart in the source

SMILES	Estimated Dose of L Isomer that Induces Convulsions in Mice (Relative to MSO) ([1]; Table 1)	Estimated Dose of L Isomer that Induces Convulsions in Mice (Relative to MSO) ([1]; Table 3)	inhibition of M. tuberculosis growth in broth culture in comparison with MSO (M. tuberculosis Erdman)	inhibition of M. tuberculosis in broth culture relative to MSO at each of the three concentrations (M. tuberculosis Erdman)	inhibition of M. tuberculosis growth in broth culture (M. tuberculosis Erdman)	inhibition of M. tuberculosis growth in human macrophages [2]	metabolism [3]	Metabolized In Vivo [3]	dose that causes convulsions in mice, higher than MSO [4] [fold]	entry into the brain compared with MSO [5]	also measured
CCC(N)(CCS(C)(=N)=O)C(=O)O (racemic) [α-Et-MSO, α-ethyl-DL-methionine-SR-sulfoximine]	>16	≧16	as inhibitory to M. tuberculosis growth as MSO	as inhibitory or slightly more inhibitory than MSO	inhibited M. tuberculosis	readily inhibited M. tuberculosis growth in human macrophages	resistant to metabolism	−	16	do not enter the brain as readily as MSO	
CC(N)(CCS(C)(=N)=O)C(=O)O (racemic) [α-Me-MSO, α-methyl-DL-methionine-SR-sulfoximine]	8	8	as inhibitory to M. tuberculosis growth as MSO	slightly less inhibitory than MSO	inhibited M. tuberculosis	readily inhibited M. tuberculosis growth in human macrophages	resistant to metabolism	−	~8	do not enter the brain as readily as MSO	
CCCCS(=N)(=O)CCC(N)C(=O)O [BSO, D, L-Buthionine-SR-Sulfoximine]					did not						animals killed [6]: 100%
NNC(=O)c1ccncc1 [INH, isoniazid]											reduction of CFU in lung and spleen below the level obtained with MSO ([7]; INH 1 mg kg^−1 day^−1 oral): ~1.5 logs; reduction of CFU in lung and spleen below the level obtained with MSO ([7]; INH 4 mg kg^−1 day^−1 oral): ~2.5 logs; protection from weight loss ([7]; […], MSO 1.5, INH 1 or 4 mg kg^−1 day^−1): protected animals from weight loss
CS(=N)(=O)CC[C@H](N)C(=O)O (stereo partly drawn) [MSO, L-methionine-SR-sulfoximine]	1	1			inhibited M. tuberculosis						fewer CFU of M. tuberculosis in lung and spleen than control animals ([7]; in vivo): approximately 1 log unit; protection from weight loss ([7]; in vivo): protected animals from weight loss; reduction of CFU of M. tuberculosis in lungs and spleen compared with control animals ([7]; in vivo): ~0.7 logs; reduction of bacterial counts in lung and spleen ([7]; in vivo): effective at reducing bacterial counts; survival of the 10 week observation period ([7]; in vivo): 100% and 80% and 60%; weight gain versus untreated controls ([7]; in vivo): gained significantly more weight than untreated controls; weight loss versus untreated controls ([7]; in vivo): protected from weight loss; reduction of CFU in lungs and spleen compared with untreated controls ([7]; in vivo, ip): 2.5 logs; MTD in the presence of ascorbate relative to absence of ascorbate (guinea pig, in vivo): 4 fold; maximum tolerated dose for guinea pigs infected with M. tuberculosis (guinea pig, in vivo): 1.5 mg kg^−1 day^−; tolerability (guinea pig, in vivo): well-tolerated
O=C1O[C@H]([C@@H](O)CO)C(O)=C1O [ascorbate]											total dose well tolerated by guinea pigs (i.p., 9 mmoles kg^−1 day^−1 not well tolerated): 3 mmol/kg/day

From patent US20060142251A1, “Anti-microbial agents derived from methionine sulfoximine analogues” (priority 2002, published 2006)
